Patent US9107844B2, “Topical skin treating compositions” (STIEFEL LABORATORIES INC., priority 2006, dated 2015)

Columns and labels:
Type in all cases: physicochemical
[1] = Stability of combined active ingredients, Example 6 composition (benzoyl peroxide/tazarotene/clindamycin); settings: 0.096% tazarotene, […] clindamycin, Initial […], 2 weeks
Description: Measurements were taken at the end of 2 weeks. The composition was stored at 2 different temperatures, i.e., 25° C. and 30° C. […]

[2] = Stability of active ingredients, Example 9 composition (benzoyl peroxide/tazarotene); settings: composition 5.18% BPO, 0.099% tazarotene, Initial 5.18%
Text: Tables 9 and 10 show the stability of the active ingredients in a composition containing 5.18% of benzoyl peroxide and 0.099% of tazarotene.
A 2-week and 6-month analysis of the composition was undertaken following the procedure of Example 2.

[3] = Stability of active ingredients, Example 10 composition (benzoyl peroxide/clindamycin); settings: composition 4.84% BPO, 1.08% clindamycin, Initial 4.84%
Text: A 2-week analysis and 6-month analysis of the composition was undertaken following the procedure of Example 2.

Structure (SMILES): O=C(OOC(=O)c1ccccc1)c1ccccc1 [Benzoyl Peroxide]
- Benzoyl Peroxide (BPO) (as % w/w) ([1]; 25° C.): 1.06 % w/w
- Benzoyl Peroxide (BPO) (as % w/w) ([1]; 30° C.): 1.06 % w/w
- Benzoyl Peroxide (BPO) (as % w/w) ([2]; 6° C., 6 months): 5.2 % w/w
- Benzoyl Peroxide (BPO) (as % w/w) ([2]; 25° C., 2 weeks): 5.21 % w/w
- Benzoyl Peroxide (BPO) (as % w/w) ([2]; 25° C., 6 months): 5.14 % w/w
- Benzoyl Peroxide (BPO) (as % w/w) ([3]; 6° C., 2 weeks): 5.53 % w/w
- Benzoyl Peroxide (BPO) (as % w/w) ([3]; 6° C., 6 months): 4.81 % w/w
- Benzoyl Peroxide (BPO) (as % w/w) ([3]; 25° C., 2 weeks): 5.01 % w/w
- Benzoyl Peroxide (BPO) (as % w/w) ([3]; 25° C., 6 months): 4.85 % w/w
